{"source": "patent US10479814B2", "about": "“Adenosine receptor activation reagent and the uses of thereof” (Zhejiang Subtropical Crops Research Institute, priority 2014, dated 2019)", "key": {"[1]": {"tested_on": "mouse spontaneous activity", "assay": "mouse spontaneous activity (sedation)", "assay_type": "in vivo", "procedure": "Male ICR mice were randomly divided into four groups, and adenosine A1R antagonist DPCPX was selected. The mice were divided into solvent group, HEA (15 mg/kg) group, DPCPX (4 mg/kg) and DPCPX+HEA (4 mg/kg+15 mg/kg) group; wherein in DPCPX+HEA group, the mice was peritonealelly injected with the antagonist, after 10 min the HEA was peritoneally injected. After 15 min of drug administration, the mice were put into a single opaque square spontaneous activity box (50 cm×50 cm×40 cm), and foot grating number within 5 min was recorded by video camera. Calculating on the basis of four limbs of the mouse entering the same lattice, as the activity index of the animal."}, "[2]": {"tested_on": "mouse kidney ischemia reperfusion", "assay": "kidney ischemia reperfusion: apoptosis by TUNEL method", "assay_type": "in vivo", "details": "vs IR group, DPCPX 1 mg/kg; for renal tubular epithelial cell apoptosis number (TUNEL×400): HEA treated group, DPCPX+HEA", "procedure": "Male C57BL/6 mice 20-25 g, after one week of adaptive feeding to the animals, were randomly divided into eight groups: sham-operation group, IR group, HEA 5 mg/kg group, HEA 7 mg/kg group, HEA 10 mg/kg group, DPCPX (1 mg/kg) group, DPCPX (1 mg/kg)+HEA (5 mg/kg) group and DPCPX (1 mg/kg)+HEA (7.5 mg/kg) group.\nThe mouse was weighed before operation, then peritoneally injected with pentobarbital sodium 50 mg/kg to anaesthetize the mouse, abdomen was opened by ventromedial incision, blunt dissection and the kidney pedicle was sufficiently exposed, renal ischemia was induced by clapping two side kidney pedicle with non-invasive bulldog clamp, the color of kidney change from bright red to purple black immediately, determination method of success of the experiment model can refer to the methods in literature 7 and 8. At time of 30 min of ischemia the bulldog clamp was loosened, the perfuse was restored, the color of kidney changed gradually from dark red to bright red, showing re perfusion was successful. The wound was stitched. The animals were freely fed water and food.\nIn the sham-operation group, the mice only received operation of abdomen open, kidney pedicle and abdomen suture. The kidney IR mode were made for the mice in the remaining groups. In each drug group, before 15 minute of ischemia, the drug with corresponding concentration was speritoneally injected, in drug combination group, 15 minutes before ischemia, the drugs were given simultaneously.\nFetching a part of the stored kidney tissue, conventional paraffin embedded 4 μm of section. Operate according to the method of the specification in kit. […] Randomly selecting 10 400-fold visual fields, calculate apoptosis index AI %=positive cell number/total number of all cell in the visual field×100%."}, "[3]": {"tested_on": "pentylenetetrazole induced convulsion", "assay": "pentylenetetrazole induced convulsion in mouse", "assay_type": "in vivo", "procedure": "Male ICR mouse, 18˜22 g; purchased from Animal Experiment Center of Wenzhou Medical University. Before experiment, animals were adapted to environment for at least 5 days. Kept at 25 °C, food and water were freely fed. Based on the weight, the healthy male ICR mice were randomly divided into control group (1% DMSO, ip), model group, CCPA group (0.1 mg·kg^−1, ip), HEA group (15 mg/kg, 40 mg/kg, 60 mg/kg), DPCPX group (2 mg·kg^−1, ip), ZM241385 group (1 mg·kg^−1, 5 mg·kg^−1, ip), DPCPX+HEA (2 mg·kg^−1+40 mg/kg, ip) group and ZM241385+HEA (1 mg·kg^−1+40 mg/kg, 5 mg·kg^−1+40 mg/kg ip) group.\nThe survival time and mortality after convulsion were respectively recorded for each group."}, "[4]": {"tested_on": "rat middle cerebral artery distal obstruction cerebral ischemia model", "assay": "dMCAO cerebral ischemia: TUNEL detection of brain cortex apoptosis", "assay_type": "in vivo", "procedure": "Using rat middle cerebral artery distal obstruction cerebral ischemia model. (1) according to rat weight, 10% chloral hydrate (3 ml/kg) was peritoneally injected to anaesthetize. (2) the rat lie on right side and fixed, 1 cm skin incision was cut at connection of inner canthus with external canal, fascia was isolated, muscle tissue, the skull was exposed; (3) a small amount of normal saline was sucked with cotton ball to wipe the skull to ac clear view; (4) fascia was isolated under operating microscope, and the skull was exposed, a hole with diameter of 2 mm circular was drilled at a sute 1/3 of spine; (5) the excess bone debris was washed by a small amount of normal saline, the meninge was push aside, and the middle cerebral artery MCA was exposed; (6) the rat lie in supine position and fixed, an incision was made along middle of throat, and arteria carotis communis CCA on both sides were isolate, pass through with a surgical suture, not ligated temporarily; (7) the MCA was found under operating microscope, burned by a monopolar coagulator, then wash and colled with normal saline; (8) immediately after coagulation, the arteria carotis communis on both sides was ligated, and blocked for 60 min; (9) the wound on head was stitched, after 1 hour the arteria carotis communis on both sides was […], and the skin was stitched, thus the modeling was complete. […]"}, "[5]": {"tested_on": "pain writhing response induced by 0.7% acetic acid", "assay": "acetic acid writhing method (analgesia)", "assay_type": "in vivo, mouse", "details": "for effect of A1 antagonist on analgesic effect of the HEA: DPCPX 1 mg/kg ip 10 minutes before HEA 15 mg/kg", "procedure": "Clean male Kunming mice, weight 18-22 g, selecting adenosine AiR antagonist DPCPX. The mice were divided into solvent group, HEA (15 mg/kg) group, DPCPX (1 mg/kg) and DPCPX+HEA (1 mg/kg+15 mg/kg) group; wherein in DPCPX+HEA group, the mouse was peritoneally injected with antagonist, after 10 minutes, the HEA was peritonealy injected. Using writhing method, the treatment dose was given, after 30-40 minutes, 0.7% acetic acid was peritoneally injected, and writhing number of the white mouse within 15 minutes was recorded, calculating the reduction number of pain writhing response induced by 0.7% acetic acid by the HEA."}, "[6]": {"biological_target": "T1, rat striatum adenosine A2A receptor (Rattus norvegicus, UniProt P30543)", "T1 construct": "from tissue; host or cells: Wistar rat striatum", "T1 sequence (P30543 whole entry)": "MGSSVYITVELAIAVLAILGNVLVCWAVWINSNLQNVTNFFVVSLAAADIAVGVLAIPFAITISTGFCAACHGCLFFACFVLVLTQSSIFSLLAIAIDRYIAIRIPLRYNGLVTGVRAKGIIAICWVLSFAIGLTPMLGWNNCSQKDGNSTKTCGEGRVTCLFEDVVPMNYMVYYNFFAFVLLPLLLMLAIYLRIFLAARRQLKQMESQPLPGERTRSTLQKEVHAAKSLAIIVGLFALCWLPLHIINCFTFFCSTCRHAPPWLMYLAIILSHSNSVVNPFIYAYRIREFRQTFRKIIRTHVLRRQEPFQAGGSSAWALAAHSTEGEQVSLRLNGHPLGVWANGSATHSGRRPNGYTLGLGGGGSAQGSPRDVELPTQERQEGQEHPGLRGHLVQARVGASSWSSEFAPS", "assay": "adenosine A2A receptor ligand binding test ([3H]MSX-2)", "details": "rat striatum homogenate, 0.75 nM [3H]MSX-2, 25° C. 30 min; read-out: Ki value of competitive binding with the adenosine A2A receptor", "experimental": "Using Wistar rat, head was cut and the brain was removed, and cerebral cortex and striatum were separated, respectively weighed, added into 10 fold volume of ice-cooled Tris-HCL buffer solution (50 mM, PH7.5) according to 1:10, the tissue is homogenized, after the suspension was centrifuged the supernatant was discarded, the above-described solution wash was repeated for 3 times, centrifuged again and the supernatant was discarded, the precipitate was again mixed in 50 mM Tris-HCL buffer solution, the protein concentration in rat cerebral cortex determined by Coomassie Brilliant Blue Method (Bradford method) was 0.8 mg/ml, the protein content in rat striatum brain tissue homogenate was 1.3 mg/ml.\nTo a detect tube the HEA with different concentration (10^−9, 10^−8, 10^−7, 10^−6, 10^−5 mol/L) were added, mixed well, then incubated at 25° C. in water bath on shaking table for 30 min, the reaction liquid was drawn by a cell collector, passed the GF/B glass filter membrane (Watman), reaction was terminated, washed 3 times with Tris-HCl buffer solution, each time 3 ml, the filter membrane was removed and dried, then put into a scintillation vial containing 4 ml of scintillation solution to determine radioactivity. A radioactivity count to the filter membrane was conducted by a scintillation counter."}}, "note": "pKi: −log10 of the molar value. Entries after “also recorded” stand apart in the source; their conditions may differ."}
{"smiles": "CCCn1c(=O)c2[nH]c(C3CCCC3)nc2n(CCC)c1=O", "note": "[DPCPX, reference compound]", "values": [{"measurement": "effect of DPCPX on sedation of the HEA", "setting": "[1]; DPCPX 4 mg/kg ip 10 min before HEA 15 mg/kg", "value": "sedation of the HEA is significantly antagonized"}, {"measurement": "renal tubular epithelial cell apoptosis number (TUNEL×400)", "setting": "[2]", "value": "significantly increased"}, {"measurement": "effect of antagonist on the anti-convulsion action of the HEA", "setting": "[3]; antagonist ip 10 min before HEA 40 mg/kg, DPCPX 2 mg/kg, ZM241385 1 and 5 mg/kg", "value": "significantly inhibit the anti-convulsion effect of the HEA; also recorded: significantly reduce the anti-convulsion effect of the HEA"}, {"measurement": "effect of DPCPX on brain protective effect of HEA (TUNEL)", "setting": "[4]; DPCPX 1 mg/kg ip + HEA 7.5 mg/kg ip", "value": "blocking brain protective effect of the HAE"}, {"measurement": "effect of A1 antagonist on analgesic effect of the HEA", "setting": "[5]", "value": "analgesic effect of the HEA is significantly antagonized"}, {"measurement": "effect of A1 antagonist on analgesic effect of the HEA", "setting": "[5]; listed as adenosine A1 receptor antagonist", "value": "analgesic effect was reduced"}]}
{"smiles": "OCCNc1ncnc2c1ncn2[C@@H]1O[C@H](CO)[C@@H](O)[C@H]1O", "note": "[HEA, N(6)-(2-hydroxyethyl)-adenosine]", "values": [{"measurement": "spontaneous activity number within 5 min", "setting": "[1]; normal mouse, HEA 15 mg/kg ip, 15 min after administration, vs solvent group", "value": "significant; also recorded: significantly reduce spontaneous activity number of normal mouse within 5 min"}, {"measurement": "TUNEL apoptosis index", "setting": "[2]; P<0.01, HEA 5, 7.5, 10 mg/kg, DPCPX 1 mg/kg+HEA 5 or 7.5 mg/kg", "value": "significantly less than IR group"}, {"measurement": "renal tubular epithelial cell apoptosis number (TUNEL×400)", "setting": "[2]", "value": "apoptosis number is reduced"}, {"measurement": "survival time after convulsion", "setting": "[3]; HEA 40 mg/kg ip, pentylenetetrazole 100 mg/kg ip, vs control group", "value": "significantly extend the survival time"}, {"measurement": "mortality of mouse convulsion", "setting": "[3]; HEA 40 mg/kg, pentylenetetrazole 100 mg/kg ip", "value": "very significantly reduce the mortality"}, {"measurement": "pKi", "setting": "[6]", "value": "~5.05"}, {"measurement": "apoptosis rate of cerebral cortex infarction ischemic penumbra (TUNEL)", "setting": "[4]; dMCAO rat, HEA 7.5 mg/kg ip, vs model group", "value": "significantly reduced; also recorded: significantly reduce the apoptosis rate of rat cerebral cortex infarction ischemic penumbra"}, {"measurement": "writhing number", "setting": "[5]; HEA 15 mg/kg ip, 0.7% acetic acid, within 15 minutes, vs solvent group", "value": "significantly reduced the writhing number; also recorded: significantly reduce writhing number"}]}
